Data taken from patent US7999069B2, “EphB receptor-binding peptides” (Sanford-Burnham Medical Research Institute, priority 2005, dated 2011).
No end group written: not given here.

Experiments:
EphB1 [1] = biological target: T1, EphB1 (Homo sapiens, UniProt P54762); test: Peptide competition of phage binding to EphB1 ectodomain
T1 construct: panned on the ectodomains of EphB1, EphB2, or EphB4 fused to human Fc
T1 sequence (P54762 18-540 limits assumed): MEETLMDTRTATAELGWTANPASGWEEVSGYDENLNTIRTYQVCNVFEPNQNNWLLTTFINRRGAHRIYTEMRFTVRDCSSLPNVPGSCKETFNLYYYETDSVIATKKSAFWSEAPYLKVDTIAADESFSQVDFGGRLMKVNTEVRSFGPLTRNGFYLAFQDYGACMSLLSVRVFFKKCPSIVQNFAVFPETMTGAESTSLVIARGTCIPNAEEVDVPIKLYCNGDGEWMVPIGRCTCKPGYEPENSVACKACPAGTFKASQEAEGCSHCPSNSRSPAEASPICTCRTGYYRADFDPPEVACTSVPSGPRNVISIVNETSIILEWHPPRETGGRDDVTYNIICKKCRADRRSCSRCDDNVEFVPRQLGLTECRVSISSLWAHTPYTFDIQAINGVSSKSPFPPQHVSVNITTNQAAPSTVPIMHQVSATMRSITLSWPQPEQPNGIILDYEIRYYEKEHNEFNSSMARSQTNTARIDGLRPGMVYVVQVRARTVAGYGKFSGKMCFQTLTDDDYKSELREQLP
Experimental: To measure peptide competition of phage binding to EphB receptors, Ni-NTA wells coated with Eph ectodomain Fc were incubated for 30 min at room temperature with various peptide concentrations in binding buffer (100 μl/well). Concentrated stocks of phage clones diluted between 1:500 and 1:10,000 in binding buffer were then added to the wells for a 1 hr at room temperature. Wells were washed and bound phage were detected using the anti-M13 antibody. A biotinylated control peptide with sequence unrelated to the sequences of the Eph-binding peptides ([…], SEQ ID NO: 40) was used as a negative control in some of the experiments, as indicated in the figure legends.
[…]. The SNEW peptide at 25 μM inhibited EphB2 binding of most phage clones isolated by panning on EphB2 (FIGS. 2E and G). The only exceptions were the IHWP, DHRWV and WHWT clones. However, binding of these clones was inhibited by 50 μM SNEW peptide, particularly when the phage concentration was halved. […] Bound phage were detected using anti-M13 phage antibody coupled to HRP and phage binding in the presence of peptide was normalized to phage binding in the absence of peptide. Error bars indicate standard deviation from duplicate measurements, and were calculated taking into account propagation of errors.

EphB1 [2] = biological target: T1, EphB1; test: Inhibition of ephrin-B2 AP binding to immobilized EphB1 ectodomain
Experimental: Peptides that bind to the same receptor region as the ephrins would be expected to inhibit Eph receptor-ephrin association, if they interact with sufficient affinity. A number of synthetic peptides were tested for their ability to inhibit binding of alkaline phosphatase-tagged ephrin-B2 (ephrin-B2-AP) to EphB receptors (FIG. 3). Most of the peptides were synthesized with a biotin tag and immobilized on streptavidin plates to verify their ability to capture the EphB ectodomains used for their isolation.
Ephrin-B2 AP binding to the indicated immobilized EphB receptor ectodomains was measured in the presence of the indicated peptides and detected by measuring alkaline phosphatase activity. […]. […] Wells coated with the different EphB ectodomains were incubated with ephrin-B2 AP and 50 μM of the indicated peptides. Ephrin-B2 AP binding in the presence of peptide was normalized to binding in the absence of peptide. All peptides were biotinylated except for FSPQ and EWYM. […] Therefore, IPWT was not used for further experiments. […]
The GP motif aligns with the GP motif of TNYL and the RAW motif aligns precisely next to the last amino acid of TNYL. […] After several washes, the amount of ephrin-B2-AP bound was quantified using p-nitrophenylphosphate as a substrate. […]

- Inhibition of binding of the corresponding phage clone to EphB1 (EphB1 [1]; concentration-dependent): efficiently inhibited binding
- Inhibition of ephrin-B2 AP binding to EphB1 (in words) (EphB1 [2]): inhibited ephrin binding to EphB1
Sequence: EWLSPNLAPSVR [SEQ ID NO 1]
- Inhibition of EphB1 binding of phage clones isolated by panning on EphB1 (EphB1 [1]; 5 μM peptide): inhibited EphB1 binding of the phage clones isolated by panning on EphB1
